pIC50: −log10 of the molar value. Like-named read-outs stand apart in the source and are kept apart here.
Legend:
IRAK4 [1] = target: T1, IRAK4 (Homo sapiens (Human), UniProt Q9NWZ3); assay: IRAK4 Biochemical HTRF Kinase Assay; details: read-out: IRAK4 HTRF biochemical: IC50
How it was run: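 HTRF KinEASE STK S1 format measuring IRAK4 phosphorylation of biotinylated peptide; reaction solution of 5 μM STK-S1, 10 mM ATP, 10 mM MgCl2 added (stock, to 10 μl final), 90 min at ambient temperature, detection 60 min. IC50 from sixteen-point duplicate curves by non-linear regression.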
Target sequence in this assay (Q9NWZ3 whole entry, species assumed): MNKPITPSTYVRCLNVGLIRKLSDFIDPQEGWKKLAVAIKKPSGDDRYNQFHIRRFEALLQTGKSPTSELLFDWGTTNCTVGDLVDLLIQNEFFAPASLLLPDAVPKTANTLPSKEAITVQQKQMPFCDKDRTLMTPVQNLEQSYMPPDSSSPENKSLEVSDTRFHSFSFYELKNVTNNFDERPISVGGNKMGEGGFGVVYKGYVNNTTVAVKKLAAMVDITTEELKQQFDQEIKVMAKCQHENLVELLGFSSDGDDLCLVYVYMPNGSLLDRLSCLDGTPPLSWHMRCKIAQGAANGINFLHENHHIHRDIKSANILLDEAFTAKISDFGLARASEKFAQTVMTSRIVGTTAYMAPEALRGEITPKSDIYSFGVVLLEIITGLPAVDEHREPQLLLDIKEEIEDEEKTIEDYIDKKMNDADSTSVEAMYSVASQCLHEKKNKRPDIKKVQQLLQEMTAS

IRAK4 [2] = target: T1, IRAK4; assay: IRAK4 Degradation HiBiT Assay; details: HiBiT-tagged Jurkat cells, 4 hrs; for Dmax: Jurkat; for DC50: read-out: Cellular IRAK4 HiBiT: DC50
Target sequence in this assay (Q9NWZ3 whole entry): as the sequence (Q9NWZ3 whole entry, species assumed) above

[3] = read-out: Cellular IRAK4 HiBiT: Dmax, Table 5, multiple runs

pIC50 (IRAK4 [1]; Table 5, multiple runs)	Dmax (IRAK4 [2]; [3])	DC50 (IRAK4 [2]; Table 5, multiple runs)	pIC50 (IRAK4 [1]; Table 4)	Dmax (IRAK4 [2]; read-out: Cellular IRAK4 HiBiT: Dmax, Table 4)	DC50 (IRAK4 [2]; Table 4)	Compound
8.92	95%	1080 nM				CNc1cc(-c2ccc3cc(C#N)cnn23)ncc1-c1nnc([C@H]2CC[C@@H](NC(=O)CCC(=O)N[C@H](C(=O)N3C[C@H](O)C[C@H]3C(=O)N[C@@H](C)c3ccc(-c4scnc4C)cc3)C(C)(C)C)CC2)s1 [Example 121, N1-((1s,4R)-4-(5-(6-(3-cyanopyrrolo[1,2-b]pyridazin-7-yl)-4-(methylamino)pyridin-3-yl)-1,3,4-thiadiazol-2-yl)cyclohexyl)-N4—((S)-1-((2S,4R)-4-hydroxy-2-(((S)-1-(4-(4-methylthiazol-5-yl)phenyl)ethyl)carbamoyl)pyrrolidin-1-yl)-3,3-dimethyl-1-oxobutan-2-yl)succinamide]
8.77	53%	190 nM	8.77	62%	127 nM	CC(C)Nc1cc(-c2ccc3cc(C#N)cnn23)ncc1-c1nnc(N2CCN(CCC3CCN(c4ccc5c(c4)C(=O)N(C4CCC(=O)NC4=O)C5=O)CC3)CC2)s1 (stereo not drawn) [Example 16, 7-(5-(5-(4-(2-(1-(2-(2,6-dioxopiperidin-3-yl)-1,3-dioxoisoindolin-5-yl)piperidin-4-yl)ethyl)piperazin-1-yl)-1,3,4-thiadiazol-2-yl)-4-(isopropylamino)pyridin-2-yl)pyrrolo[1,2-b]pyridazine-3-carbonitrile]
8.92	20%	27.1 nM				CNc1cc(-c2ccc3cc(C#N)cnn23)ncc1-c1nnc([C@H]2CC[C@@H](NC(=O)CCOCCOCCOCCNc3cccc4c3C(=O)N(C3CCC(=O)NC3=O)C4=O)CC2)s1 (stereo partly drawn) [Example 117, N-((1s,4s)-4-(5-(6-(3-cyanopyrrolo[1,2-b]pyridazin-7-yl)-4-(methylamino)pyridin-3-yl)-1,3,4-thiadiazol-2-yl)cyclohexyl)-3-(2-(2-(2-((2-(2,6-dioxopiperidin-3-yl)-1,3-dioxoisoindolin-4-yl)amino)ethoxy)ethoxy)ethoxy)propanamide]
8.80	74%	1210 nM				CNc1cc(-c2ccc3cc(C#N)cnn23)ncc1-c1nnc(N2CCC(NC(=O)CCC(=O)N[C@H](C(=O)N3C[C@H](O)C[C@H]3C(=O)N[C@@H](C)c3ccc(-c4scnc4C)cc3)C(C)(C)C)CC2)s1 [Example 158, N1-(1-(5-(6-(3-cyanopyrrolo[1,2-b]pyridazin-7-yl)-4-(methylamino)pyridin-3-yl)-1,3,4-thiadiazol-2-yl)piperidin-4-yl)-N4—((S)-1-((2S,4R)-4-hydroxy-2-(((S)-1-(4-(4-methylthiazol-5-yl)phenyl)ethyl)carbamoyl)pyrrolidin-1-yl)-3,3-dimethyl-1-oxobutan-2-yl)succinamide]
8.68		> 970 nM				CC(C)Nc1cc(-c2ccc3cc(C#N)cnn23)ncc1-c1nnc(N2CCN(CC3CCN(Cc4ccc5c(c4)C(=O)N(C4CCC(=O)NC4=O)C5=O)CC3)CC2)s1 (stereo not drawn) [Example 85, 7-(5-(5-(4-((1-((2-(2,6-dioxopiperidin-3-yl)-1,3-dioxoisoindolin-5-yl)methyl)piperidin-4-yl)methyl)piperazin-1-yl)-1,3,4-thiadiazol-2-yl)-4-(isopropylamino)pyridin-2-yl)pyrrolo[1,2-b]pyridazine-3-carbonitrile]
8.68		> 9980 nM				CNc1cc(-c2ccc3cc(C#N)cnn23)ncc1-c1nnc(N2CCCC3(CN(Cc4ccc5c(c4)CN(C4CCC(=O)NC4=O)C5=O)C3)C2)s1 (stereo not drawn) [Example 123, 7-(5-(5-(2-((2-(2,6-dioxopiperidin-3-yl)-1-oxoisoindolin-5-yl)methyl)-2,6-diazaspiro[3.5]nonan-6-yl)-1,3,4-thiadiazol-2-yl)-4-(methylamino)pyridin-2-yl)pyrrolo[1,2-b]pyridazine-3-carbonitrile]
8.72		> 9980 nM				CNc1cc(-c2ccc3cc(C#N)cnn23)ncc1-c1nnc(N2CCCC3(CN(C(=O)c4ccc5c(c4)C(=O)N(C4CCC(=O)NC4=O)C5=O)C3)C2)s1 (stereo not drawn) [Example 124, 7-(5-(5-(2-(2-(2,6-dioxopiperidin-3-yl)-1,3-dioxoisoindoline-5-carbonyl)-2,6-diazaspiro[3.5]nonan-6-yl)-1,3,4-thiadiazol-2-yl)-4-(methylamino)pyridin-2-yl)pyrrolo[1,2-b]pyridazine-3-carbonitrile]
8.82	77%	49.9 nM				CNc1cc(-c2ccc3cc(C#N)cnn23)ncc1-c1nnc(C23CCC(NC(=O)CN4CCC5(CC4)CN(c4ccc6c(c4)C(=O)N(C4CCC(=O)NC4=O)C6=O)C5)(CC2)CC3)s1 (stereo not drawn) [Example 104, N-(4-(5-(6-(3-cyanopyrrolo[1,2-b]pyridazin-7-yl)-4-(methylamino)pyridin-3-yl)-1,3,4-thiadiazol-2-yl)bicyclo[2.2.2]octan-1-yl)-2-(2-(2-(2,6-dioxopiperidin-3-yl)-1,3-dioxoisoindolin-5-yl)-2,7-diazaspiro[3.5]nonan-7-yl)acetamide]

From patent US12528814B2, “Bifunctional degraders of interleukin-1 receptor-associated kinases and therapeutic use thereof” (NURIX THERAPEUTICS, INC., priority 2020, dated 2026)
